Where two headings read alike, the source gives them in different places.
Tested on: cutaneous anaphylactic reaction
Experiment: passive cutaneous anaphylaxis (PCA) test in the rat
Format: in vivo
Conditions: dose decreasing diameter of blue area by 50% vs solvent controls, female rats
Protocol: This activity is indicated in the passive cutaneous anaphylaxis (PCA) test in the rat.
The method employed in this test is based on those described by Mota, Immunology 7, 681 (1964) and Stofland and Share, J. Physiol. Pharmacol. 52, 1114 (1974). Female rats (180-200 g) are sensitized by subcutaneous administration of 1 mg of ovalbumin and 200 mg aluminium hydroxide, dissolved in 1 ml of physiological saline solution and intraperitoneal administration of 0.5 ml of Haemophilus pertussis vaccine (SchweizerischesSerum- und Impfinstitut, Bern, Switzerland; 4×10^10 organism/ml). Fourteen day later, the animals are decapited, the blood centrifuged and the serum (anti-ovalbumin serum) collected and deep frozen.
The diluted anti-ovalbumin serum is injected intradermally (0.1 ml per injection site) at […] on the backs of untreated, female rats. Twenty-four hours after the passive sensitisation, the rats receive either solvent or the test compound i.v. in a tail-vein or per os. Immediately afterwards or, in the case of p.o. administration, 60 minutes later, the animals receive an intravenous injection of 1 ml of antigen. The antigen (5 mg/ml) is dissolved in a 0.25% solution of Evans blue dye in physiological saline. In the controls this injection elicits a cutaneous anaphylactic reaction, the intensity of which is proportional to the distance to which the dye diffuses into the tissue surrounding the four sensitisation sites. Thirty minutes later, the rats are killed in CO2 and the diameter in mm of the blue spot at each injection site measured. The drug dose decreasing the diameter of the blue area by 50% compared with solvent pretreated control rats (ED50), is obtained from the regression line. The dose-effect correlation is tested for statistical significance.
In the above test, compounds of the formula I are found to be active on administration at dosages of from about 0.1 to about 3.2 mg/kg p.o. and from about 0.056 to about 1.00 mg/kg i.v. ED50 values for the representative compounds 4-{1-[2-[2-(2-hydroxy-ethoxy)ethoxy]ethyl]piperidin-4-yliden}-4H-benzo[4,5]cyclohepta[1,2-b]thiophen-10(9H)-one. HBr (Compound A) and 2-{2-[2-[4-(5H-dibenzo[a,d]cyclohept-5-yliden)piperidin-1-yl]ethoxy]ethoxy}ethanol hydrogenofumarate (Compound B) as well as for the reference compound 5,5'-[(2-hydroxy-1,3-propanediyl)bis-(oxy)]bis[4-oxo-4H-1-benzopyran-2-carboxylic acid]

[1] = iv, i.v. in a tail-vein, immediately before antigen, read-out: ED50 (i.v.)
[2] = po, 60 minutes before antigen, read-out: ED50 (p.o)

Row | SMILES | ED50 [1] [mg/kg] | ED50 [2] [mg/kg]
1 | O=C(O)c1cc(=O)c2c(OCC(O)COc3cccc4oc(C(=O)O)cc(=O)c34)cccc2o1 [Compound C, 5,5'-[(2-hydroxy-1,3-propanediyl)bis-(oxy)]bis[4-oxo-4H-1-benzopyran-2-carboxylic acid], reference compound] | ~2.6 | 
2 | OCCOCCOCCN1CCC(=C2c3ccccc3C=Cc3ccccc32)CC1 [Compound B, 2-{2-[2-[4-(5H-dibenzo[a,d]cyclohept-5-yliden)piperidin-1-yl]ethoxy]ethoxy}ethanol hydrogenofumarate] | ~0.22 | ~0.49
3 | O=C1Cc2ccccc2C(=C2CCN(CCOCCOCCO)CC2)c2ccsc21 [Compound A, 4-{1-[2-[2-(2-hydroxy-ethoxy)ethoxy]ethyl]piperidin-4-yliden}-4H-benzo[4,5]cyclohepta[1,2-b]thiophen-10(9H)-one. HBr] | ~0.21 | ~1.8

Reference: patent US4609664A, “Antiasthmatic piperidylidene derivatives” (Sandoz Ltd., priority 1980, dated 1986)
